Results published in PubChem BioAssay AID248 (DTP/NCI, 2004).
Where “and” joins values, the source holds several entries; their conditions need not be identical. Equal values may be shown once. Inconclusive results and toxic doses are left out. Rule as the data show it: active = T/C of 150% or more; inactive = T/C below 125%.

System: L1210 leukemia ip in BDF1 mice, survival T/C
Test: NCI In Vivo Anticancer Drug Screen. Data for tumor model L1210 Leukemia (intraperitoneal) in B6D2F1 (BDF1) mice
Details: higher = longer survival
How it was run: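 In this screen, tumor-bearing mice given compound are compared to those given vehicle, and their survival values are reported as a treated-to-control quotient.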

[1] = endpoint: mean survival time, dose: 100.0 mg/kg/injection, schedule: Q04DX003 (ip), vehicle: saline
[2] = endpoint: mean survival time, dose: 200.0 mg/kg/injection, schedule: Q04DX003 (ip), vehicle: saline
[3] = endpoint: mean survival time, dose: 400.0 mg/kg/injection, schedule: Q04DX003 (ip), vehicle: saline
[4] = endpoint: mean survival time, dose: 50.0 mg/kg/injection, schedule: Q04DX003 (ip), vehicle: Klucel (hydroxypropylcellulose) (HPC)
[5] = endpoint: mean survival time, dose: 100.0 mg/kg/injection, schedule: Q04DX003 (ip), vehicle: Klucel (hydroxypropylcellulose) (HPC)
[6] = endpoint: mean survival time, dose: 200.0 mg/kg/injection, schedule: Q04DX003 (ip), vehicle: Klucel (hydroxypropylcellulose) (HPC)
[7] = endpoint: mean survival time, dose: 400.0 mg/kg/injection, schedule: Q04DX003 (ip), vehicle: Klucel (hydroxypropylcellulose) (HPC)
[8] = endpoint: mean survival time, dose: 100.0 mg/kg/injection, schedule: Q01DX009 (ip), vehicle: saline
[9] = endpoint: mean survival time, dose: 100.0 mg/kg/injection, schedule: Q01DX001 (ip), vehicle: carboxymethylcellulose (CMC)
[10] = endpoint: mean survival time, dose: 200.0 mg/kg/injection, schedule: Q01DX001 (ip), vehicle: carboxymethylcellulose (CMC)
[11] = endpoint: mean survival time, dose: 400.0 mg/kg/injection, schedule: Q01DX001 (ip), vehicle: carboxymethylcellulose (CMC)
[12] = endpoint: mean survival time, dose: 100.0 mg/kg/injection, schedule: Q01DX009 (ip), vehicle: Klucel (hydroxypropylcellulose) (HPC)
[13] = endpoint: mean survival time, dose: 200.0 mg/kg/injection, schedule: Q01DX009 (ip), vehicle: Klucel (hydroxypropylcellulose) (HPC)

Measured: T/C

O=C1C(OC(=O)c2ccccc2)=C(c2ccc(O)cc2)C(=O)C(OC(=O)c2ccccc2)=C1c1ccc(O)cc1
inactive: endpoint: mean survival time, dose: 12.5 mg/kg/injection, schedule: Q01DX Z (ip), vehicle: carboxymethylcellulose (CMC) 94 % of control | endpoint: mean survival time, dose: 25.0 mg/kg/injection, schedule: Q01DX Z (ip), vehicle: carboxymethylcellulose (CMC) 94 % of control | endpoint: mean survival time, dose: 50.0 mg/kg/injection, schedule: Q01DX Z (ip), vehicle: carboxymethylcellulose (CMC) 105 % of control | endpoint: mean survival time, dose: 100.0 mg/kg/injection, schedule: Q01DX Z (ip), vehicle: carboxymethylcellulose (CMC) 102 % of control

CC1(C)OCC2OC(N)C(O)C2O1 (stereo not drawn)
inactive: [1] 100 % of control | [2] 89 % of control | [3] 98 % of control

CCCCCCCC1CCC(N)CC1 (stereo not drawn)
inactive: endpoint: mean survival time, dose: 12.5 mg/kg/injection, schedule: Q04DX003 (ip), vehicle: Klucel (hydroxypropylcellulose) (HPC) 105 % of control | endpoint: mean survival time, dose: 25.0 mg/kg/injection, schedule: Q04DX003 (ip), vehicle: Klucel (hydroxypropylcellulose) (HPC) 91 % of control | [4] 100 % of control

COCC(=O)OCCCCCOC(=O)COC
inactive: [4] 104 % of control | [5] 102 % of control | [6] 96 % of control | [7] 88 % of control

Cc1c2ccncc2c(C)c2c1oc1ccccc12
inactive: endpoint: mean survival time, dose: 200.0 mg/kg/injection, schedule: Q01DX009 (ip), vehicle: other 91 % of control | endpoint: mean survival time, dose: 400.0 mg/kg/injection, schedule: Q01DX009 (ip), vehicle: other 95 % of control

CN(N)C=O
inactive: endpoint: mean survival time, dose: 75.0 mg/kg/injection, schedule: Q01DX001 (ip), vehicle: saline 100 % of control | [1] 108 % of control | endpoint: mean survival time, dose: 150.0 mg/kg/injection, schedule: Q01DX001 (ip), vehicle: saline 96 % of control | endpoint: mean survival time, dose: 300.0 mg/kg/injection, schedule: Q01DX001 (ip), vehicle: saline 98 % of control

Nc1nc(N)c2nc3c(nc2n1)CN(c1ccc(C(=O)O)cc1)C3=O
inactive: [8] 104 % of control | endpoint: mean survival time, dose: 200.0 mg/kg/injection, schedule: Q01DX009 (ip), vehicle: saline 89 % of control

NC(NCCN1CC1)(C(F)(F)F)C(F)(F)F
inactive: endpoint: mean survival time, dose: 10.0 mg/kg/injection, schedule: Q04DX003 (ip), vehicle: Klucel (hydroxypropylcellulose) (HPC) 109 % of control | endpoint: mean survival time, dose: 20.0 mg/kg/injection, schedule: Q01DX001 (ip), vehicle: Klucel (hydroxypropylcellulose) (HPC) 105 % of control | endpoint: mean survival time, dose: 20.0 mg/kg/injection, schedule: Q04DX003 (ip), vehicle: Klucel (hydroxypropylcellulose) (HPC) 104 % of control | endpoint: mean survival time, dose: 40.0 mg/kg/injection, schedule: Q01DX001 (ip), vehicle: Klucel (hydroxypropylcellulose) (HPC) 101 % of control | endpoint: mean survival time, dose: 40.0 mg/kg/injection, schedule: Q04DX003 (ip), vehicle: Klucel (hydroxypropylcellulose) (HPC) 109 % of control

O=C(c1ccccc1[N+](=O)[O-])N(O)c1ccc(/C=C/c2ccccc2)cc1
inactive: [9] 93 % of control | [10] 95 % of control | [11] 95 % of control

COC(=O)CC12CCCC(C)(CC(=O)N1)C2 (stereo not drawn)
inactive: [9] 93 % of control | [10] 96 % of control | [11] 98 % of control

Cc1cccc(Cl)c1NC(=S)N1CCCC1
inactive: [12] 94 % of control | [13] 94 % of control | endpoint: mean survival time, dose: 400.0 mg/kg/injection, schedule: Q01DX009 (ip), vehicle: Klucel (hydroxypropylcellulose) (HPC) 96 % of control

CCOc1ccc(-n2c(O)c(N=Nc3ccccc3C)c(=O)n(-c3ccc(OC)cc3)c2=S)cc1
inactive: endpoint: mean survival time, dose: 100.0 mg/kg/injection, schedule: Q01DX001 (ip), vehicle: Klucel (hydroxypropylcellulose) (HPC) 94 % of control | endpoint: mean survival time, dose: 200.0 mg/kg/injection, schedule: Q01DX001 (ip), vehicle: Klucel (hydroxypropylcellulose) (HPC) 95 % of control | endpoint: mean survival time, dose: 400.0 mg/kg/injection, schedule: Q01DX001 (ip), vehicle: Klucel (hydroxypropylcellulose) (HPC) 89 % of control

O=Cc1c[nH]c2ccc(Br)cc12
inactive: [1] 95 % of control | [2] 105 % of control | [3] 95 % of control

Cc1cccc(NC(=O)CSc2ccc(Cl)cc2)c1
inactive: endpoint: mean survival time, dose: 100.0 mg/kg/injection, schedule: Q04DX002 (sc), vehicle: olive oil, sesame oil, peanut oil 100 % of control | endpoint: mean survival time, dose: 200.0 mg/kg/injection, schedule: Q04DX002 (sc), vehicle: olive oil, sesame oil, peanut oil 106 % of control | endpoint: mean survival time, dose: 400.0 mg/kg/injection, schedule: Q04DX002 (sc), vehicle: olive oil, sesame oil, peanut oil 89 % of control

CC1=C(/C=C/C(C)=C/C=C/C(C)=C/C(=O)O)C(C)(C)CCC1
inactive: endpoint: mean survival time, dose: 88.0 mg/kg/injection, schedule: Q01DX009 (ip), vehicle: steriod suspending solution 89 % of control | endpoint: mean survival time, dose: 100.0 mg/kg/injection, schedule: Q01DX009 (ip), vehicle: saline with Tween-80 100 % of control | endpoint: mean survival time, dose: 200.0 mg/kg/injection, schedule: Q01DX001 (sc), vehicle: steriod suspending solution 104 % of control | endpoint: mean survival time, dose: 200.0 mg/kg/injection, schedule: Q01DX009 (ip), vehicle: saline with Tween-80 94 % of control | endpoint: mean survival time, dose: 400.0 mg/kg/injection, schedule: Q01DX001 (sc), vehicle: steriod suspending solution 98 % of control | endpoint: mean survival time, dose: 400.0 mg/kg/injection, schedule: Q01DX009 (ip), vehicle: saline with Tween-80 91 % of control | endpoint: median survival time, dose: 25.0 mg/kg/injection, schedule: Q01DX009 (ip), vehicle: other 111 % of control | endpoint: median survival time, dose: 50.0 mg/kg/injection, schedule: Q01DX009 (ip), vehicle: other 100 % of control | endpoint: median survival time, dose: 100.0 mg/kg/injection, schedule: Q01DX009 (ip), vehicle: other 100 % of control | endpoint: median survival time, dose: 200.0 mg/kg/injection, schedule: Q01DX009 (ip), vehicle: other 100 % of control

Cc1ccnc(N)c1
inactive: endpoint: mean survival time, dose: 12.5 mg/kg/injection, schedule: Q04DX002 (ip), vehicle: saline 114 % of control | endpoint: mean survival time, dose: 25.0 mg/kg/injection, schedule: Q04DX002 (ip), vehicle: saline 102 % of control | endpoint: mean survival time, dose: 50.0 mg/kg/injection, schedule: Q04DX002 (ip), vehicle: saline 96 % of control

N#Cc1nc2c(nc1C#N)-c1ccccc1/C2=C1/C(=O)Cc2ccccc21
inactive: endpoint: mean survival time, dose: 25.0 mg/kg/injection, schedule: Q04DX002 (ip), vehicle: other 93 % of control and 90 % of control

Cc1ccc(S(=O)(=O)NC(CCl)=NC2CCCCC2)cc1
inactive: endpoint: mean survival time, dose: 100.0 mg/kg/injection, schedule: Q04DX002 (ip), vehicle: Klucel (hydroxypropylcellulose) (HPC) 96 % of control | endpoint: mean survival time, dose: 200.0 mg/kg/injection, schedule: Q04DX002 (ip), vehicle: Klucel (hydroxypropylcellulose) (HPC) 100 % of control | endpoint: mean survival time, dose: 400.0 mg/kg/injection, schedule: Q04DX002 (ip), vehicle: Klucel (hydroxypropylcellulose) (HPC) 103 % of control

CS(=O)(=O)OCCN(CCOS(C)(=O)=O)c1ccc(C=Nc2cc(Br)c(O)c(Br)c2)c(Cl)c1
inactive: [5] 98 % of control | [6] 98 % of control | [7] 97 % of control

CCCCNC(=O)C1CCCC(C(=O)NCCCC)C1 (stereo not drawn)
inactive: endpoint: mean survival time, dose: 75.0 mg/kg/injection, schedule: Q01DX009 (ip), vehicle: saline 96 % of control | endpoint: mean survival time, dose: 150.0 mg/kg/injection, schedule: Q01DX009 (ip), vehicle: saline 102 % of control | endpoint: mean survival time, dose: 300.0 mg/kg/injection, schedule: Q01DX009 (ip), vehicle: saline 87 % of control

CCOC(=O)c1ccc2cc(C(=O)c3ccccc3)ccc2n1
inactive: endpoint: mean survival time, dose: 50.0 mg/kg/injection, schedule: Q01DX009 (ip), vehicle: saline 94 % of control | [8] 100 % of control | [1] 91 % of control | [2] 91 % of control | [3] 93 % of control

Nc1c(Cl)c(Cl)c(Cl)c(Cl)c1C(=O)O
inactive: endpoint: mean survival time, dose: 40.0 mg/kg/injection, schedule: Q01DX009 (ip), vehicle: Klucel (hydroxypropylcellulose) (HPC) 105 % of control | endpoint: mean survival time, dose: 75.0 mg/kg/injection, schedule: Q01DX009 (ip), vehicle: Klucel (hydroxypropylcellulose) (HPC) 103 % of control | endpoint: mean survival time, dose: 75.0 mg/kg/injection, schedule: Q04DX003 (ip), vehicle: saline 104 % of control | [12] 93 % of control | endpoint: mean survival time, dose: 150.0 mg/kg/injection, schedule: Q01DX009 (ip), vehicle: Klucel (hydroxypropylcellulose) (HPC) 97 % of control and 122 % of control | endpoint: mean survival time, dose: 150.0 mg/kg/injection, schedule: Q04DX003 (ip), vehicle: saline 98 % of control | [13] 93 % of control

O=C(O)C1c2ccccc2-c2c(-c3ccccc3)cccc21 (stereo not drawn)
inactive: endpoint: mean survival time, dose: 100.0 mg/kg/injection, schedule: Q04DX003 (ip), vehicle: saline with Tween-80 87 % of control | endpoint: mean survival time, dose: 200.0 mg/kg/injection, schedule: Q04DX003 (ip), vehicle: saline with Tween-80 91 % of control | endpoint: mean survival time, dose: 400.0 mg/kg/injection, schedule: Q04DX003 (ip), vehicle: saline with Tween-80 103 % of control
